The source of these data is US5981539A, “Piperidine compounds as calcium channel blockers” (Neurosearch A/S, priority 1995, dated 1999).

Sequence of N-type calcium channels (chick cortical synaptosomes) (A0A8V1AJW5 1-2349): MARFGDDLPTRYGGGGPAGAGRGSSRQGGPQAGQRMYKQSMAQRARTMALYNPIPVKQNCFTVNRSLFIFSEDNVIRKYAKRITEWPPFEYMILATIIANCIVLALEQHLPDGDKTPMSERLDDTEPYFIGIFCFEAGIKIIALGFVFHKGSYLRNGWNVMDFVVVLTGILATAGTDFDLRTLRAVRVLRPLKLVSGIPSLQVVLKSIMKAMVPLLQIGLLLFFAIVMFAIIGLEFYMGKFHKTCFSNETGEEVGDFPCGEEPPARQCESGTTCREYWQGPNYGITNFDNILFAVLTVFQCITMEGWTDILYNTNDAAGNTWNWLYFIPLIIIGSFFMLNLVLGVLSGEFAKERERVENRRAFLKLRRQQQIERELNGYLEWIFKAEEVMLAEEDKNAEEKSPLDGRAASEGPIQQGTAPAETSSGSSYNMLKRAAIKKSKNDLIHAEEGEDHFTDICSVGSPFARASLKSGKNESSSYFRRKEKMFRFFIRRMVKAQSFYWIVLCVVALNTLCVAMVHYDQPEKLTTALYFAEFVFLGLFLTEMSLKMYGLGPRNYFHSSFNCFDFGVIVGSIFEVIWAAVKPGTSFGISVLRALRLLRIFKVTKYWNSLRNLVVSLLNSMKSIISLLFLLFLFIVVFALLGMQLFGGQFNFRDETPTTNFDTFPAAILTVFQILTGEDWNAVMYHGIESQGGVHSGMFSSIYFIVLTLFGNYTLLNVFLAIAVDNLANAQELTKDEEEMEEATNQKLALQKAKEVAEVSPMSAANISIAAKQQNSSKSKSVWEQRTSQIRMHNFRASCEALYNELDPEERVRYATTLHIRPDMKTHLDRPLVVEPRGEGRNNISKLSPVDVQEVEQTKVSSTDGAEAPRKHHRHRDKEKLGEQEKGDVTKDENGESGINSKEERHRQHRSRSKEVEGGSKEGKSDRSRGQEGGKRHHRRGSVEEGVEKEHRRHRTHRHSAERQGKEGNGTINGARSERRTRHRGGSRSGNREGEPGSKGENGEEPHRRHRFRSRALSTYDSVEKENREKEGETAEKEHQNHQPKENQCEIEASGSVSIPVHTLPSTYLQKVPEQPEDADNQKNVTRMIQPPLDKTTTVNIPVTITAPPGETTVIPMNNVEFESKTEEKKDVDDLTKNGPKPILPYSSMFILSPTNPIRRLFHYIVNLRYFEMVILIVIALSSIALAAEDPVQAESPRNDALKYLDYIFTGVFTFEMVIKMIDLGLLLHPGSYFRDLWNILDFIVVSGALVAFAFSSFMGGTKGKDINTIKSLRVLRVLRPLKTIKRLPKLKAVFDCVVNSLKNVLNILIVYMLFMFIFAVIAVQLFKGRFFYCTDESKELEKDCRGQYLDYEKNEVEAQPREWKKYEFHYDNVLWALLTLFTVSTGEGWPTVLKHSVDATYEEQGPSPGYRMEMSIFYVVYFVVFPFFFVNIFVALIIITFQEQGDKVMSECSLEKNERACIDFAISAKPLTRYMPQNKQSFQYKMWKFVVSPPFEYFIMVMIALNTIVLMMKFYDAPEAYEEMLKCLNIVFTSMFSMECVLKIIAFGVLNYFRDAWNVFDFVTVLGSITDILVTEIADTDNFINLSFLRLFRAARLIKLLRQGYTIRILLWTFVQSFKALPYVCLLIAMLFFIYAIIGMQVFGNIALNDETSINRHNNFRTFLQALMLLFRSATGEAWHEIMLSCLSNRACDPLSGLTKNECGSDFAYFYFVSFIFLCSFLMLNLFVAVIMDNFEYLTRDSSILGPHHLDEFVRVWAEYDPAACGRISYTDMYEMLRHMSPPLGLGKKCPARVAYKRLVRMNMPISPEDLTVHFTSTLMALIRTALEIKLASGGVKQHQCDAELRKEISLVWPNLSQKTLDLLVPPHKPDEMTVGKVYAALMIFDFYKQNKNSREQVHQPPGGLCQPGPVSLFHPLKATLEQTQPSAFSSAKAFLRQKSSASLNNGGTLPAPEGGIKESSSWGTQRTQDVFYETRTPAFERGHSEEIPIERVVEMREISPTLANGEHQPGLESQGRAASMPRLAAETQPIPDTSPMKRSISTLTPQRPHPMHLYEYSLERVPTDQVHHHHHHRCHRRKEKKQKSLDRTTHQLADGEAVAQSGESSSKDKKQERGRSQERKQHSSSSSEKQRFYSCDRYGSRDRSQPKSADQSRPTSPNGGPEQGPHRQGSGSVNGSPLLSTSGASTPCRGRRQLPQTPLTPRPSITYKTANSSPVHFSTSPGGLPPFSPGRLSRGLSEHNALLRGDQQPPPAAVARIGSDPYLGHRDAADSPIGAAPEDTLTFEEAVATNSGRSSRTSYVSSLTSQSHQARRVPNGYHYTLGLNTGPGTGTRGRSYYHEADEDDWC

Test system in one experiment: not given
Assay: not given
To be noted: drugs that act at both sodium and calcium channels; result in words; cited from earlier work.
Take `Cc1ccc(-c2nc(C)c(CN3CCN(C(c4ccccc4)c4ccccc4)CC3)[nH]2)cc1` [Lifarizine]: the “anti-ischaemic activity in animal models” value is listed as “powerful anti-ischaemic activity”. Turning to `COc1ccc(CN2CCN(C(c3ccc(F)cc3)c3ccc(F)cc3)CC2)c(OC)c1OC` [Lomerizine], the “anti-ischaemic activity in animal models” value is given as “powerful anti-ischaemic activity”. With Lanodipine, the “anti-ischaemic activity in animal models” value was “powerful anti-ischaemic activity”.

Another experiment concerns the target N-type calcium channels (chick cortical synaptosomes) (Gallus gallus, UniProt A0A8V1AJW5). The experiment in a line: 45Ca-uptake/influx into chick cortical synaptosomes (K+ depolarization, 30 mM K+). Conditions: 30 mM K+ minus 4 mM K+, 10 sec influx, 37° C., pH 7.4, read-out: IC50 (concentration of test substance which inhibits the specific uptake of 45Ca by 50%). Type of experiment: biochemical.
`CCCCCN1CC[C@H](CCOc2cccc(C)c2C)[C@H](OC)C1` (racemic) [(±)-cis-4-[2-(2,3-Dimethylphenoxy)-ethyl]-3-methoxy-N-pentylpiperidine]: the IC50 came to 900 nM. On the same count and under the same terms, next, `CCCCCN1CC[C@H](CCOc2ccccc2Cc2ccccc2)[C@H](OC)C1` (racemic) [(±)-cis-4-[2-(2-benzylphenoxy)ethyl]-3-methoxy-N-pentylpiperidine]: 900 nM.

Regarding `CCCCCN1CC[C@H](CCOc2ccccc2-c2ccccc2)[C@H](OC)C1` (racemic) [(±)-cis-4-[2-(2-phenylphenoxy)ethyl]-3-methoxy-N-pentylpiperidine], the IC50 turned out to be 1000 nM. Turning to `CCCCCN1CC[C@H](CCN(c2ccccc2)c2ccccc2)[C@H](OC)C1` (racemic) [(±)-cis-4-[2-(N,N-diphenylamino)ethyl]-3-methoxy-N-pentylpiperidine], the IC50 turned out to be 1100 nM. Same read-out and setting: the result for `CCCCCN1CC[C@@H](CCOc2ccccc2Cc2ccccc2)[C@H](OC)C1` (racemic) [(±)-trans-4-[2-(2-benzylphenoxy)ethyl]-3-methoxy-N-pentylpiperidine] reads 600 nM; that for `CCCCCN1CC[C@@H](CCOc2ccc(Cl)c(Cl)c2)[C@H](OC(C)=O)C1` (racemic) [(±)-trans-4-[2-(3,4-Dichlorophenoxy)-ethyl]-3-acetoxy-N-pentylpiperidine], 500 nM. Same read-out and setting: next, `CCCCCN1CC[C@@H](CCOc2ccc(Cl)c(Cl)c2)[C@H](OC)C1` (racemic) [(±)-trans-4-[2-(3,4-Dichlorophenoxy)-ethyl]-3-methoxy-N-pentylpiperidine]: 700 nM.

On to `CCCCCN1CC[C@@H](CCOc2cccc(OC(C)C)c2)[C@H](OCCOC)C1` (racemic) [(±)-trans-4-[2-(3-isopropoxyphenoxy)ethyl]-3-(2-methoxy-1-ethoxy)-N-pentylpiperidine], for which the IC50 came out at 1100 nM. In the case of `CCCCCN1CC[C@@H](CCN(c2ccccc2)c2ccccc2)[C@H](OCCOC)C1` (racemic) [(±)-trans-4-[2-(N,N-diphenylamino)ethyl]-3-(2-methoxy-1-ethoxy)-N-pentylpiperidine], the IC50 was determined as 500 nM. `CCCCCN1CC[C@@H](CCN(c2ccccc2)c2ccccc2)[C@H](OC)C1` (racemic) [(±)-trans-4-[2-(N,N-diphenylamino)ethyl]-3-methoxy-N-pentylpiperidine]: the IC50 amounted to 1300 nM. Regarding `CCCCCN1CC[C@@H](Oc2ccc(Oc3ccccc3)cc2)[C@H](OCCOC)C1` (racemic) [(±)-trans-4-[4-phenoxyphenoxy]-3-(2-methoxy-1-ethoxy)-N-pentylpiperidine], the IC50 came to 620 nM. On to `CCCCCN1CC[C@@H](Oc2ccccc2OCc2ccccc2)[C@H](OCCOC)C1` (racemic) [(±)-trans-4-[(2-benzyloxyphenoxy)]-3-(2-methoxy-1-ethoxy)-N-pentylpiperidine], for which the IC50 turned out to be 900 nM.

For `CCCCCN1CC[C@@H](SCc2ccc(Cl)cc2)[C@H](OCCOC)C1` (racemic) [(±)-trans-4-[(4-chlorobenzyl)thio]-3-(2-methoxy-1-ethoxy)-N-pentylpiperidine], the IC50 was 1000 nM. On to `CCCCCN1CC[C@@H](CCOc2ccc(Cl)c(Cl)c2)[C@@H](OCCOC)C1` (relative stereo) [(±)-cis-4-[2-(3,4-Dichlorophenoxy)-ethyl]-3-(2-methoxy)-ethoxy-N-pentylpiperidine], for which the IC50 worked out at 300 nM. Same read-out and setting: the result for `CCCCCN1CC[C@H](CCOc2ccc(Cl)c(Cl)c2)[C@@H](OCCOC)C1` (relative stereo) [(±)-trans-4-[2-(3,4-Dichlorophenoxy)-ethyl]-3-(2-methoxy)-ethoxy-N-pentylpiperidine] reads 400 nM.
